Legend:
PANC-1 cells [1] = assay: Fluorescence and confocal microscopy, Example 2; format: cell-based, human; details: suspension of CPT in PBS, 100 nM, 3 hours incubation
Source text: (§1) Human cancer cell lines, PANC-1, AsPC-1, Capan-1 (pancreatic), MKN45 (gastric), and SW480 (colon) were obtained from the American Type Culture Collection and were maintained in Dulbecco's modified Eagle's medium (DMEM) (GIBCO) or RPMI-1640 (Cellgro) supplemented with 10% fetal calf serum (Sigma), 2% L-glutamine, 1% penicillin, and 1% streptomycin stock solutions. The media were changed every 3 days, and the cells were passaged by trypsinization before confluence.
The fluorescence of the nanoparticles at 470 nm excitation wavelength was used to confirm the cellular uptake of FMSN. […] The cells were then monitored by fluorescence microscope with an excitation wavelength at 470 nm. To examine the location of FMSN within the cells, Acridine Orange (AO) (Sigma) and lysoSensor green DND-189 (Invitrogen) were used to monitor lysosomes and endosomes. Cells were cultured overnight on a Lab-Tek chamber slide system (Nalge Nunc International). After the cells were incubated with FMSN for 3 hours, they were washed with PBS and examined with confocal microscope (λex=470 nm) (Carl Zeiss LSM 310 Laser Scanning Confocal microscope). […] This property allows the use of fluorescence to study the distribution of CPT inside the cells. PANC-1 cells were incubated with CPT-loaded FMSN or CPT suspended in PBS (100 nM) for 3 hours, washed with PBS 3 times, and then examined by fluorescence microscope under UV.

AsPc-1 cells = assay: Cell death assay (WST-8), Example 2; format: cell-based, human
Source text: as §1

Capan-1 cells = assay: Cell death assay (WST-8), Example 2; format: cell-based, human
Source text: as §1

MKN-45 cells = assay: Cell death assay (WST-8), Example 2; format: cell-based, human
Source text: as §1

PANC-1 cells [2] = assay: Cell death assay (WST-8), Example 2; format: cell-based, human
Source text: as §1

SW480 cells = assay: Cell death assay (WST-8), Example 2; format: cell-based, human
Source text: as §1

PANC-1 cells [3] = assay: Apoptosis assay (propidium iodide/Hoechst 33342, DNA fragmentation, caspase-3 Western blot); format: cell-based, human; details: 24 hours
Method: Cell death was also examined using the propidium iodide and Hoechst 33342 double-staining method. The cells were stained with propidium iodide/Hoechst 33342 (1:1) for 5 minutes and then examined using fluorescence microscope. DNA fragmentation assay was also performed. PANC-1 cells were treated for 24 hours with: (1) 100 nM CPT in PBS, (2) 100 nM CPT loaded in FMSN (suspended in PBS), or (3) 64 μg/ml nonloaded FMSN in PBS, then washed twice with ice-cold PBS and collected by trypsinization. The cell pellets were resuspended in 500 μl of Tris-EDTA buffer (20 mM Tris-HCl [pH 8.0], 20 mM EDTA) containing 0.1% SDS and proteinase K (0.5 mg/ml) at 50° C. for 2 hours and then treated with RNase A (0.02 mg/ml) for 30 minutes at 37° C. DNA was extracted using phenol/chloroform and ethanol precipitation and was dissolved in distilled water, separated on a 2% agarose gel, and stained with ethidium bromide.
Proteins were separated by gel electrophoresis on a polyacrylamide gel containing sodium dodecyl sulfate (SDS), and then transferred to nitrocellulose membranes. The membranes were blocked with tris buffer saline (TBS) containing 5% (W/V) skim milk. […] Bands were detected with an ECL system (Amersham Pharmacia Biotech K.K., UK).

cancer cells = details: relative to CPT; cited from earlier work
PANC-1 cells [4] = assay: Confocal microscopy of FMSN uptake, Example 3; format: cell-based, human; details: 0.1% sodium azide, sucrose 0.45 M, bafilomycin A 0.05 μM, nocodazole 2 μg/ml, brefeldin A 5 μg/ml
Method: The fluorescence of FITC was used to monitor cellular uptake of FMSN. Cells were incubated with FMSN for 3 h at 37° C. under a 5% CO2 95% air atmosphere in an 8-chamber Lab-Tek chamber slide system with covers (Nalge Nunc International), washed with phosphate buffered saline (PBS) and examined with confocal microscopy (λex=470 nm) (Carl Zeiss LSM 310 Laser Scanning Confocal microscopy). To examine the distribution of FMSN within the cells, the same cells were then incubated with 6 μM of Acridine Orange (AO) (Sigma), which specifically stains lysosomes/endosomes to red (Canonico, P. G. and Bird, J. W. C. (1969), J. Cell Biol. 43, 367-371), for 1 h in DMEM without phenol red, washed with PBS, and examined by confocal microscopy again (λex=488 nm). The emission light was passed through a 560-nm short-pass dichroic mirror. The green emission was passed through a 530-nm bandpass filter, and the red emission was passed through a 600-nm longpass filter. Both emissions were simultaneously collected using two photomultiplier tubes.
To determine whether the uptake of FMSN into cancer cells was energy-dependent, the cells were incubated with FMSN under different metabolic conditions. The uptake assay was performed in the presence of sodium azide, sucrose, bafilomycin A, nocodazole or brefeldin A. Cells were seeded on 8-chamber Lab-Tek chamber slides for 24 h, then preincubated at 4° C. with either 0.1% sodium azide, or sucrose (0.45 M), or bafilomycin A (0.05 μM), or nocodazole (2 μg/ml), or brefeldin A (5 μg/ml) for 10 min. The FMSN suspension in PBS was then added and the cells were incubated for additional 3 h at 37° C. The uptake was stopped by washing the cells three times with cold PBS, and then the cells were fixed with 4% paraformaldehyde in PBS for 1 h at room temperature and washed with PBS. The chambers of slides were removed, and each slide was mounted with fluorescence-free glycerol-based mounting medium (Fluoromount-G; Southern Biotechnology Associates, USA) by cover glasses. Cells were analyzed by confocal microscopy (Carl Zeiss LSM 310 Laser Scanning Confocal microscopy).

PANC-1 cells [5] = assay: Cell morphology analysis by light microscopy; details: PANC-1, paclitaxel dissolved in DMSO

CC[C@@]1(O)C(=O)OCc2c1cc1n(c2=O)Cc2cc3ccccc3nc2-1 [CPT, camptothecin]
CPT fluorescence in cells (PANC-1 cells [1]): remained nonfluorescent | cytotoxicity / growth inhibition (AsPc-1 cells; AsPc-1, CPT dissolved in DMSO, 24 h treatment + 48 h): growth inhibition of different human cancer cells was observed | cytotoxicity (AsPc-1 cells; AsPc-1, CPT suspended in PBS, even at high concentrations): did not show any cytotoxicity | cytotoxicity / growth inhibition (Capan-1 cells; Capan-1, CPT dissolved in DMSO, 24 h treatment + 48 h): growth inhibition of different human cancer cells was observed | cytotoxicity (Capan-1 cells; Capan-1, CPT suspended in PBS, even at high concentrations): did not show any cytotoxicity | cytotoxicity / growth inhibition (MKN-45 cells; MKN-45, CPT dissolved in DMSO, 24 h treatment + 48 h): growth inhibition of different human cancer cells was observed | cytotoxicity (MKN-45 cells; MKN-45, CPT suspended in PBS, even at high concentrations): did not show any cytotoxicity | cytotoxicity / growth inhibition (PANC-1 cells [2]; PANC-1, CPT dissolved in DMSO, 24 h treatment + 48 h): growth inhibition of different human cancer cells was observed | cytotoxicity (PANC-1 cells [2]; PANC-1, CPT suspended in PBS, even at high concentrations): did not show any cytotoxicity | cytotoxicity / growth inhibition (SW480 cells; SW480, CPT dissolved in DMSO, 24 h treatment + 48 h): growth inhibition of different human cancer cells was observed | cytotoxicity (SW480 cells; SW480, CPT suspended in PBS, even at high concentrations): did not show any cytotoxicity | mechanism of cell death (propidium iodide/Hoechst 33342 double staining) (PANC-1 cells [3]; PANC-1, CPT dissolved in DMSO, compared with CPT-loaded FMSN): similar

CCc1c2c(nc3ccc(OC(=O)N4CCC(N5CCCCC5)CC4)cc13)-c1cc3c(c(=O)n1C2)COC(=O)[C@]3(O)CC [irinotecan]
cytotoxicity to cancer cells compared to CPT (cancer cells): 10%

OC[C@H]1O[C@@](CO)(O[C@H]2O[C@H](CO)[C@@H](O)[C@H](O)[C@H]2O)[C@@H](O)[C@@H]1O [sucrose]
effect of preincubation with inhibitor on uptake of FMSN (PANC-1 cells [4]): suppressed the uptake

C[S+](C)[O-] [DMSO, dimethyl sulfoxide]
mechanism of cell death (propidium iodide/Hoechst 33342 double staining) (PANC-1 cells [3]; PANC-1, 10% DMSO): induced necrosis

CO/C1=C\C(C)=C\[C@@H](C)[C@@H](O)[C@@H](C)C/C(C)=C/C=C/[C@H](OC)[C@@H]([C@@H](C)[C@@H](O)[C@H](C)[C@@]2(O)C[C@@H](O)[C@H](C)[C@@H](C(C)C)O2)OC1=O [bafilomycin A]
effect of preincubation with inhibitor on uptake of FMSN (PANC-1 cells [4]): completely suppressed the uptake

CC(=O)O[C@H]1C(=O)[C@@]2(C)[C@H]([C@H](OC(=O)c3ccccc3)[C@]3(O)C[C@H](OC(=O)[C@H](O)[C@@H](NC(=O)c4ccccc4)c4ccccc4)C(C)=C1C3(C)C)[C@]1(OC(C)=O)CO[C@@H]1C[C@@H]2O [paclitaxel]
morphologic change of the cells (PANC-1 cells [5]): Cells became round and smaller

C[C@H]1CCC/C=C/[C@@H]2C[C@H](O)C[C@H]2[C@H](O)/C=C/C(=O)O1 [brefeldin A]
effect of preincubation with inhibitor on uptake of FMSN (PANC-1 cells [4]): did not show any effect

COC(=O)Nc1nc2ccc(C(=O)c3cccs3)cc2[nH]1 [nocodazole]
effect of preincubation with inhibitor on uptake of FMSN (PANC-1 cells [4]): significantly disrupted the uptake

Source: patent US10668024B2, “Mesoporous silica nanoparticles for biomedical applications” (The Regents of the University of California, priority 2007, dated 2020)
